The text below walks through data of US9023858B2, “Substituted pyrido[2,3-d]pyrimidines as delta-5-desaturase inhibitors” (Takeda Pharmaceutical Company Limited, priority 2010, dated 2015).

Where a name gives a salt, the structure may show the parent alone.

The target in series [1] is T1, delta-5-desaturase (Rattus norvegicus, UniProt Q920R3).
T1 construct: a rat liver microsome fraction (10 μl) diluted to 3 mg/ml with a microsome buffer; from tissue; host or cells: rat liver microsome fraction
T1 sequence (Q920R3 whole entry): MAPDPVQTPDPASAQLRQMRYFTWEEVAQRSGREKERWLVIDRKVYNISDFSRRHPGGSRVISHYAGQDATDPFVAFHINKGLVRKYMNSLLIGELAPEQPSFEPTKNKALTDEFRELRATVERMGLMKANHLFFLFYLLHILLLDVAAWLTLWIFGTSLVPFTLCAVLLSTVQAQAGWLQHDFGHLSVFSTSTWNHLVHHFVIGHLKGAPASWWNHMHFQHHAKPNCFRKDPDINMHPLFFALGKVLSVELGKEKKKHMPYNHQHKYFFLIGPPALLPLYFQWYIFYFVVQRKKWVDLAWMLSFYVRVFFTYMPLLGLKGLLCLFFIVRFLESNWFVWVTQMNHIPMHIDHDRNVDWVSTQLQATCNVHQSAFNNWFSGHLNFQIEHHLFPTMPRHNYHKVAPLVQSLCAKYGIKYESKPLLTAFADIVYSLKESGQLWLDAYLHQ
Description: Delta-5-desaturase inhibitory activity using rat liver microsome. The format is biochemical. The conditions noted are these: test compound 10 μM. The procedure: Delta-5-Desaturase Inhibitory Activity Using Rat Liver Microsome
The inhibitory activity of the test compound on delta-5-desaturase was measured by the method described below. To a solution of the test compound in DMSO prepared in advance was secondarily diluted with a buffer (300 mM NaH2PO4 [pH 7.4], 450 mM KCl, 30 mM NaF, 9 mM MgCl2, 4.5 mM glutathione [reduced form], 0.3% BSA [fatty acid free, SIGMA]) to give an assay buffer. The assay buffer (10 μl) was dispensed to a polypropylene deep 96-well block, and a rat liver microsome fraction (10 μl) diluted to 3 mg/ml with a microsome buffer (10 mM Tris-HCl [pH 7.4], 1 mM EDTA, 250 mM sucrose) was added. The enzyme reaction was started by adding 9 mM NADH, 9 mM ATP, 0.9 mM CoA, 10 μCi/ml (8E,11E,14E)-(1-^14C)eicosa-8,11,14-trienoic acid (PerkinElmer Inc.) (10 μl). The enzyme reaction was performed for 120 min at room temperature, and discontinued by the addition of 10 μl of 2.5M NaOH. After discontinuation of the reaction, the plate was sealed and incubated overnight at 55° C. to allow saponification. The fatty acid was extracted with solvent based on the Bligh & Dyer method described in Can. J. Biochem. Physiol., vol. 37, page 911 (1959) by adding formic acid:methanol:chloroform (1:6:3) (200 μl), maintaining the single layer state, sufficiently stirring the mixture and adding pure water (120 μl) for separation into two layers. The lower chloroform layer (10 μl) was spotted on a reversed-phase TLC plate (RP-18, 1154230001, Merck Japan, Ltd.), developed with acetonitrile:pure water:acetic acid (95:4.5:0.5), and the dried TLC plate was transcribed on Imaging Plate (Fuji Photo Film Co., Ltd.) for 5 hr or longer. The detection was performed using BAS-5000 (Fuji Photo Film Co., Ltd.), and the obtained spot image was numerically converted by Multi Gauge Ver2.3 (Fuji Photo Film Co., Ltd.) and a delta-5-desaturase inhibitory rate (%) of 10 μM test compound was determined.
(In general: Microsomes from liver hold many membrane-bound enzymes, among them those of drug oxidation.)

For series [2], the target named is T2, delta-5-desaturase (Homo sapiens, UniProt O60427).
T2 construct: endogenous in cells; host or cells: HepG2
T2 sequence (O60427 whole entry): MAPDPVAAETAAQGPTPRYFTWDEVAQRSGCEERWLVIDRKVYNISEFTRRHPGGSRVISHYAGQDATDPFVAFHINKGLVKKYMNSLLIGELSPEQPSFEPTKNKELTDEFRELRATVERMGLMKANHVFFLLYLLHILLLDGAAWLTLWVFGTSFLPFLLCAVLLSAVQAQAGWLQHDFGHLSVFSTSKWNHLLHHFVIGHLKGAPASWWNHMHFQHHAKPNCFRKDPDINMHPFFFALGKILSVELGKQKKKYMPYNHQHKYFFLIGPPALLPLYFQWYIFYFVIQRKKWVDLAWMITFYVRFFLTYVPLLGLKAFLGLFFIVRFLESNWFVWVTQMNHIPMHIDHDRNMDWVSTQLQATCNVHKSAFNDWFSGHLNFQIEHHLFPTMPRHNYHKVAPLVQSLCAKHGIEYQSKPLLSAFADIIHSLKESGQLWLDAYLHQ
Description: Delta-5-desaturase inhibitory activity using HepG2 cell. The conditions noted are these: test compound 1 μM. The class given is cell-based. The procedure:
Delta-5-Desaturase Inhibitory Activity Using HepG2 Cell
HepG2 was plated on a 96-well plate at 1×10^5 cells/well, and cultured overnight in DMEM (Dulbecco's modified Eagle medium) containing 10% FBS (fetal bovine serum). After washing (200 μL×2) with PBS (phosphate buffered saline), 40 μL of a reaction medium (DMEM, penicillin/streptomycin, 0.3% BSA) containing the test compound was added, and the mixture was preincubated in a CO2 incubator at 37° C. for 30 min. The reaction was started by adding a reaction medium (20 μL) containing 0.1 μCi [^14C]Eicosatrienoic acid, and the mixture was incubated in a CO2 incubator at 37° C. Incubation was performed for 3 hr, the cells were washed twice with 200 μL of PBS, detached with 50 μL of trypsin-EDTA and placed on a 96-deep well block. Furthermore, 20 μL of 2.5N NaOH was added, the plate was sealed and incubated overnight at 55° C. to allow saponification. The fatty acid extraction included acidifying with 10 μL of formic acid, adding chloroform:methanol (1:4), stirring, and further adding 200 μL of pure water to separate into two layers. The operation after development with TLC followed the method of detection system using TLC in a system using a rat liver microsome. A delta-5-desaturase inhibitory rate (%) of 1 μM test compound was determined.

Series [3] concerns the target T1, delta-5-desaturase. Description: Inhibitory activity on binding of [3H]-labelled Reference Example 1 ligand to delta-5-desaturase (rat liver microsome fraction). The conditions noted are these: test compound 10 μM; for inhibition at 10 µM: 3 nM tritiated ligand of Reference Example 1, read-out: Binding inhibitory activity against compound bind to delta-5-desaturase Binding inhibition rate (%) at 10 μM. The procedure: Inhibitory Activity on Binding of N-[2-({4-oxo-3-[4-(2,2,2-trifluoroethoxy)[2,6-^3H2]phenyl]-3,4-dihydrothieno[3,4-d]pyrimidin-2-yl}sulfanyl)ethyl]acetamide (Reference Example 1) to delta-5-desaturase)
All tests were performed at room temperature at 200 μL/well. A rat liver microsome fraction (30 μg/well) was preincubated with a test compound at a final concentration of 10 μM for 15 min in an assay buffer (10 mM Tris-HCl (pH 7.5), 100 mM KCl, 10 mM NaF, 3 mM MgCl2, 0.005% Tween20 and 1 mM GSH). N-[2-({4-oxo-3-[4-(2,2,2-trifluoroethoxy) [2,6-^3H2]phenyl]-3,4-dihydrothieno[3,4-d]pyrimidin-2-yl}sulfanyl)ethyl]acetamide was added to a final concentration of 3 nM and the mixture was incubated for 150 min. For Bound/Free separation, the membrane fraction was added on a GF/C glass filter using a cell harvester. The GF/C glass filter was washed 5 times with 300 μl of ice-cooled assay buffer (without 0.005% Tween) to separate the ligand bound to delta-5-desaturase. 50 μl of MicroScinti 0 was added, and the radioactivity on the filter was measured by TopCount. To evaluate non-specific binding, 10 μM N-[2-({4-oxo-3-[4-(2,2,2-trifluoroethoxy)phenyl]-3,4-dihydrothieno[3,4-d]pyrimidin-2-yl}sulfanyl)ethyl]acetamide was used. The inhibitory rate (%) of the test compound (10 μM) on the binding of N-[2-({4-oxo-3-[4-(2,2,2-trifluoroethoxy) [2,6-^3H2]phenyl]-3,4-dihydrothieno[3,4-d]pyrimidin-2-yl}sulfanyl)ethyl]acetamide to delta-5-desaturase was determined.

Turning to `CCCSc1nc2c(=O)[nH]ccc2c(=O)n1-c1ccc(OCC(F)(F)F)cc1` [Example 30, 2-(propylsulfanyl)-3-[4-(2,2,2-trifluoroethoxy)phenyl]-3,7-dihydropyrido[3,4-d]pyrimidine-4,8-dione], the inhibition at 10 µM against delta-5-desaturase [1] and at delta-5-desaturase [3] was 97% in each case. In addition, the inhibition at 1 µM against delta-5-desaturase [2] worked out at 96%.

As for `CCSc1nc2c(c(=O)n1-c1ccc(OCC(F)(F)F)cc1)CCNC2=O` [Example 28, 2-(ethylsulfanyl)-3-[4-(2,2,2-trifluoroethoxy)phenyl]-3,5,6,7-tetrahydropyrido[3,4-d]pyrimidine-4,8-dione], the inhibition at 10 µM at delta-5-desaturase [1] and on delta-5-desaturase [3] was 92% in each case. The inhibition at 1 µM on delta-5-desaturase [2] came to 89%.

On to `CCOc1nc2c(OCCOC)nccc2c(=O)n1-c1ccc(OCC(F)(F)F)cc1` [Example 34, 2-ethoxy-8-(2-methoxyethoxy)-3-[4-(2,2,2-trifluoroethoxy)phenyl]pyrido[3,4-d]pyrimidin-4(3H)-one], for which the inhibition at 10 µM at delta-5-desaturase [1] was 98%; on delta-5-desaturase [3] it was 88%. The inhibition at 1 µM against delta-5-desaturase [2] came to 93%.

Take `O=c1ccc2c(=O)n(-c3ccc(OCC(F)(F)F)cc3)c(OCC(F)(F)F)nc2[nH]1` [Example 11, 2-(2,2,2-trifluoroethoxy)-3-[4-(2,2,2-trifluoroethoxy)phenyl]pyrido[2,3-d]pyrimidine-4,7(3H,8H)-dione]: the inhibition at 10 µM was 100% against delta-5-desaturase [1] and 95% on delta-5-desaturase [3]. In addition, the inhibition at 1 µM against delta-5-desaturase [2] worked out at 98%.

With `CCSc1nc2nc(OC)cnc2c(=O)n1-c1ccc(OCC(F)(F)F)cc1` [Example 37, 2-(ethylsulfanyl)-7-methoxy-3-[4-(2,2,2-trifluoroethoxy)phenyl]pteridin-4(3H)-one], the inhibition at 10 µM against delta-5-desaturase [1] came out at 99%; at delta-5-desaturase [3] it was 97%. For the same molecule, the inhibition at 1 µM against delta-5-desaturase [2] worked out at 93%.

`CCSc1nc2[nH]c(=O)cnc2c(=O)n1-c1ccc(OCC(F)(F)F)cc1` [Example 38, 2-(ethylsulfanyl)-3-[4-(2,2,2-trifluoroethoxy)phenyl]pteridine-4,7(3H,8H)-dione]: the inhibition at 10 µM came to 95% at delta-5-desaturase [1] and 91% on delta-5-desaturase [3]. At delta-5-desaturase [2], the inhibition at 1 µM was 76%.

In the case of `CSc1nc2c(c(=O)n1-c1ccc(OCC(F)(F)F)cc1)CCC(=O)N2` [Example 21, 2-(methylsulfanyl)-3-[4-(2,2,2-trifluoroethoxy)phenyl]-5,6-dihydropyrido[2,3-d]pyrimidine-4,7(3H,8H)-dione], the inhibition at 10 µM against delta-5-desaturase [1] was determined as 97%; at delta-5-desaturase [3] it was 93%.

As for `CCSc1nc2nc(C(N)=O)ccc2c(=O)n1-c1ccc(OCC(F)(F)F)cc1` [Example 27, 2-(ethylsulfanyl)-4-oxo-3-[4-(2,2,2-trifluoroethoxy)phenyl]-3,4-dihydropyrido[2,3-d]pyrimidine-7-carboxamide], the inhibition at 10 µM at delta-5-desaturase [1] stood at 97%; at delta-5-desaturase [3] it was 93%. The inhibition at 1 µM on delta-5-desaturase [2] worked out at 98%.

Turning to `O=c1[nH]ccc2c(=O)n(-c3ccc(OCC(F)(F)F)cc3)c(OCC(F)(F)F)nc12` [Example 31, 2-(2,2,2-trifluoroethoxy)-3-[4-(2,2,2-trifluoroethoxy)phenyl]-3,7-dihydropyrido[3,4-d]pyrimidine-4,8-dione], the results for the inhibition at 10 µM against delta-5-desaturase [1] and at delta-5-desaturase [3] were 96% and 98%, respectively. For the same molecule, on delta-5-desaturase [2], the inhibition at 1 µM was 96%.

`CCNc1nc2[nH]c(=O)ccc2c(=O)n1-c1ccc(OCC(F)(F)F)cc1` [Example 19, 2-(ethylamino)-3-[4-(2,2,2-trifluoroethoxy)phenyl]pyrido[2,3-d]pyrimidine-4,7(3H,8H)-dione]: the figures for the inhibition at 10 µM against delta-5-desaturase [1] and on delta-5-desaturase [3] were 90% and 85%, respectively.

For `CCSc1nc2c(c(=O)n1-c1ccc(OCC(F)(F)F)cc1)SCC(=O)N2` [Example 25, 2-(ethylsulfanyl)-3-[4-(2,2,2-trifluoroethoxy)phenyl]-3H-pyrimido[5,4-b][1,4]thiazine-4,7(6H,8H)-dione], the inhibition at 10 µM at delta-5-desaturase [1] and at delta-5-desaturase [3] was 98% in each case. In addition, the inhibition at 1 µM on delta-5-desaturase [2] came out at 92%.

Turning to `CCCc1nc2c(c(=O)n1-c1ccc(OCC(F)(F)F)cc1)CCC(=O)N2` [Example 40, 2-propyl-3-[4-(2,2,2-trifluoroethoxy)phenyl]-5,6-dihydropyrido[2,3-d]pyrimidine-4,7(3H,8H)-dione], the inhibition at 1 µM at delta-5-desaturase [2] came to 92%. In addition, the inhibition at 10 µM at delta-5-desaturase [3] was 89%.

Regarding `CCSc1nc2nc(N)ccc2c(=O)n1-c1ccc(OCC(F)(F)F)cc1` [Example 26, 7-amino-2-(ethylsulfanyl)-3-[4-(2,2,2-trifluoroethoxy)phenyl]pyrido[2,3-d]pyrimidin-4(3H)-one], the inhibition at 10 µM at delta-5-desaturase [1] turned out to be 102%; at delta-5-desaturase [3] it was 96%. Besides, at delta-5-desaturase [2], the inhibition at 1 µM is 107%.

Consider `COCCOc1nccc2c(=O)n(-c3ccc(OCC(F)(F)F)cc3)c(OCCOC)nc12` [Example 35, 2,8-bis(2-methoxyethoxy)-3-[4-(2,2,2-trifluoroethoxy)phenyl]pyrido[3,4-d]pyrimidin-4(3H)-one], for which the inhibition at 10 µM against delta-5-desaturase [1] is 91%; at delta-5-desaturase [3], 89%. Further, the inhibition at 1 µM against delta-5-desaturase [2] worked out at 91%.

`COCC(F)(F)COc1nc2[nH]c(=O)ccc2c(=O)n1-c1ccc(OCC(F)(F)F)cc1` [Example 14, 2-(2,2-difluoro-3-methoxypropoxy)-3-[4-(2,2,2-trifluoroethoxy)phenyl]pyrido[2,3-d]pyrimidine-4,7(3H,8H)-dione]: the inhibition at 10 µM on delta-5-desaturase [1] turned out to be 103%. In addition, the inhibition at 1 µM on delta-5-desaturase [2] turned out to be 103%.

Regarding `CCSc1nc2[nH]c(=O)ccc2c(=O)n1-c1ccc(OCC(F)(F)F)cc1` [Example 7, 2-(ethylsulfanyl)-3-[4-(2,2,2-trifluoroethoxy)phenyl]pyrido[2,3-d]pyrimidine-4,7(3H,8H)-dione sodium salt], the “delta-5-desaturase inhibitory activity (at liver microsome) Inhibitory activity (%) at 10 μM” value at delta-5-desaturase [1] (sodium salt, 10 µM) worked out at 98%. At delta-5-desaturase [3] (3 nM tritiated ligand of Reference Example 1, sodium salt), the “Binding inhibitory activity against compound bind to delta-5-desaturase Binding inhibition rate (%) at 10 μM” value stood at 96%.

For the molecule `CCCSc1nc2nc(OC)ccc2c(=O)n1-c1ccc(OCC(F)(F)F)cc1` [Example 3, 7-methoxy-2-(propylsulfanyl)-3-[4-(2,2,2-trifluoroethoxy)phenyl]pyrido[2,3-d]pyrimidin-4(3H)-one], the inhibition at 10 µM turned out to be 102% against delta-5-desaturase [1] and 97% at delta-5-desaturase [3].
